Test system: MV-4-11 cells
Assay: Gene expression microarray analysis (Affymetrix PrimeView) and GSEA
Assay type: cell-based, human
Design: RFU PODN (11730768_x_at) / Fold change /veh PODN (11730768_x_at) / RFU LINC00158 (11744669_a_at) / Fold change /veh LINC00158 (11744669_a_at) / RFU DUSP10 (11751237_a_at) / Fold change /veh DUSP10 (11751237_a_at) / RFU ID3 (11757404_x_at) / Fold change /veh ID3 (11757404_x_at) / RFU PLEKHG5 (11737974_s_at) / Fold change /veh PLEKHG5 (11737974_s_at) / RFU LRRC4B (11730491_at) / Fold change /veh LRRC4B (11730491_at) / RFU GIMAP4 (11747438_a_at) / Fold change /veh GIMAP4 (11747438_a_at) / RFU KRT8 (11758183_x_at) / Fold change /veh KRT8 (11758183_x_at) / RFU CNN1 (11734310_a_at) / Fold change /veh CNN1 (11734310_a_at) / RFU VPS37D (11726825_at) / Fold change /veh VPS37D (11726825_at) / RFU C10orf10 (11716522_x_at) / Fold change /veh C10orf10 (11716522_x_at) / RFU KIR2DL2 /// KIR2DL4 /// KIR2DL5A /// KIR2DL5B /// KIR2DS1 /// KIR2DS2 /// KIR2DS3 /// KIR2DS4 /// KIR3DL3 /// KIR3DL3 /// KIR3DS1 (11738374_at) / Fold change /veh KIR2DL2 /// KIR2DL4 /// KIR2DL5A /// KIR2DL5B /// KIR2DS1 /// KIR2DS2 /// KIR2DS3 /// KIR2DS4 /// KIR3DL3 /// KIR3DL3 /// KIR3DS1 (11738374_at) / RFU C1QL1 (11718748_at) / Fold change /veh C1QL1 (11718748_at) / RFU TMPRSS4 (11747572_a_at) / Fold change /veh TMPRSS4 (11747572_a_at) / RFU HAMP (11756126_x_at) / Fold change /veh HAMP (11756126_x_at) / RFU RNFT2 (11725882_a_at) / Fold change /veh RNFT2 (11725882_a_at) / RFU NR4A2 (11747474_a_at) / Fold change /veh NR4A2 (11747474_a_at) / RFU ABCC12 (11746883_a_at) / Fold change /veh ABCC12 (11746883_a_at) / RFU TMEM136 (11760407_x_at) / Fold change /veh TMEM136 (11760407_x_at) / RFU CLDN22 /// WWC2 (11732394_at) / Fold change /veh CLDN22 /// WWC2 (11732394_at) / RFU HLA-DPB1 (11760878_x_at) / Fold change /veh HLA-DPB1 (11760878_x_at) / RFU SPINT1 (11716480_a_at) / Fold change /veh SPINT1 (11716480_a_at) / RFU GAP43 (11754022_s_at) / Fold change /veh GAP43 (11754022_s_at) / RFU A4GNT (11735810_at) / Fold change /veh A4GNT (11735810_at) / RFU PRB3 (11715151_x_at) / Fold change /veh PRB3 (11715151_x_at) / RFU TUBB4B (11761932_at) / Fold change /veh TUBB4B (11761932_at) / RFU CAPN14 (11732068_a_at) / Fold change /veh CAPN14 (11732068_a_at) / RFU TMCC2 (11721928_a_at) / Fold change /veh TMCC2 (11721928_a_at) / RFU IRGQ (11745062_a_at) / Fold change /veh IRGQ (11745062_a_at) / RFU FAM174B (11720279_a_at) / Fold change /veh FAM174B (11720279_a_at) / RFU TMPRSS4 (11748680_a_at) / Fold change /veh TMPRSS4 (11748680_a_at) / RFU FAM212B (11763350_a_at) / Fold change /veh FAM212B (11763350_a_at) / RFU PLEKHG5 (11743358_a_at) / Fold change /veh PLEKHG5 (11743358_a_at) / RFU ZSCAN30 (11745921_a_at) / Fold change /veh ZSCAN30 (11745921_a_at) / RFU CMKLR1 (11741424_a_at) / Fold change /veh CMKLR1 (11741424_a_at) / RFU LOC101060620 /// MAPK8IP1 (11723275_at) / Fold change /veh LOC101060620 /// MAPK8IP1 (11723275_at) / RFU SPTSSB (11747773_x_at) / Fold change /veh SPTSSB (11747773_x_at) / RFU PRSS12 (11739890_at) / Fold change /veh PRSS12 (11739890_at) / RFU BIN1 (11741810_x_at) / Fold change /veh BIN1 (11741810_x_at) / RFU WNT11 (11732464_a_at) / Fold change /veh WNT11 (11732464_a_at) / RFU C10orf10 (11716521_a_at) / Fold change /veh C10orf10 (11716521_a_at) / RFU C5orf56 (11738089_at) / Fold change /veh C5orf56 (11738089_at) / RFU CYB561 (11721691_x_at) / Fold change /veh CYB561 (11721691_x_at) / RFU ANKRD19P (11752326_a_at) / Fold change /veh ANKRD19P (11752326_a_at) / RFU OR2T12 /// OR2T33 /// OR2T8 (11738714_s_at) / Fold change /veh OR2T12 /// OR2T33 /// OR2T8 (11738714_s_at) / RFU VCAN (11748164_a_at) / Fold change /veh VCAN (11748164_a_at) / RFU JSRP1 (11732532_at) / Fold change /veh JSRP1 (11732532_at) / RFU KRTAP10-11 (11738290_x_at) / Fold change /veh KRTAP10-11 (11738290_x_at) / RFU MYO3A (11730013_a_at) / Fold change /veh MYO3A (11730013_a_at) / RFU EBF3 (11725865_a_at) / Fold change /veh EBF3 (11725865_a_at) / RFU CAMK2N1 (11719241_x_at) / Fold change /veh CAMK2N1 (11719241_x_at) / RFU C5orf56 (11738088_a_at) / Fold change /veh C5orf56 (11738088_a_at) / RFU OLFML3 (11715873_a_at) / Fold change /veh OLFML3 (11715873_a_at) / RFU LOC100653217 /// NTM (11731650_a_at) / Fold change /veh LOC100653217 /// NTM (11731650_a_at) / RFU MAPK11 (11762145_a_at) / Fold change /veh MAPK11 (11762145_a_at) / RFU FIZ1 (11724087_x_at) / Fold change /veh FIZ1 (11724087_x_at) / RFU OASL (11726364_x_at) / Fold change /veh OASL (11726364_x_at) / RFU SOX15 (11748057_x_at) / Fold change /veh SOX15 (11748057_x_at) / RFU CD79A (11719716_a_at) / Fold change /veh CD79A (11719716_a_at) / RFU HIST1H1D (11736915_at) / Fold change /veh HIST1H1D (11736915_at) / RFU CASKIN2 (11723855_a_at) / Fold change /veh CASKIN2 (11723855_a_at) / RFU LOC730098 (11760151_x_at) / Fold change /veh LOC730098 (11760151_x_at) / RFU OR4N2 (11742367_at) / Fold change /veh OR4N2 (11742367_at) / RFU PRRT2 (11749266_a_at) / Fold change /veh PRRT2 (11749266_a_at) / RFU SNX32 (11753110_a_at) / Fold change /veh SNX32 (11753110_a_at) / RFU CDHR5 (11726645_a_at) / Fold change /veh CDHR5 (11726645_a_at) / RFU RCAN1 (11760418_a_at) / Fold change /veh RCAN1 (11760418_a_at) / RFU FAM167A (11723789_a_at) / Fold change /veh FAM167A (11723789_a_at) / RFU FAM26E (11764081_at) / Fold change /veh FAM26E (11764081_at) / RFU ISYNA1 (11749810_s_at) / Fold change /veh ISYNA1 (11749810_s_at) / RFU ACY1 (11761880_at) / Fold change /veh ACY1 (11761880_at) / RFU 11764098_at / Fold change /veh 11764098_at / RFU SAMD14 (11745864_x_at) / Fold change /veh SAMD14 (11745864_x_at) / RFU NPB (11741838_a_at) / Fold change /veh NPB (11741838_a_at) / RFU TMPRSS6 (11731388_a_at) / Fold change /veh TMPRSS6 (11731388_a_at) / RFU KRTAP10-2 (11738614_at) / Fold change /veh KRTAP10-2 (11738614_at) / RFU ARHGAP8 /// PRR5-ARHGAP8 (11727945_x_at) / Fold change /veh ARHGAP8 /// PRR5-ARHGAP8 (11727945_x_at) / RFU KRTAP5-7 /// NADSYN1 (11734609_at) / Fold change /veh KRTAP5-7 /// NADSYN1 (11734609_at) / RFU RASL12 (11751679_a_at) / Fold change /veh RASL12 (11751679_a_at) / RFU CDKN2B (11736163_a_at) / Fold change /veh CDKN2B (11736163_a_at) / RFU PRF1 (11729649_at) / Fold change /veh PRF1 (11729649_at) / RFU, ZNF638 /// ZNF638-IT1 / Fold change vs veh, ZNF638 /// ZNF638-IT1 / RFU, PANK3 / Fold change vs veh, PANK3 / RFU, SH3YL1 / Fold change vs veh, SH3YL1 / RFU, ZEB2 / Fold change vs veh, ZEB2 / RFU, NRIP1 / Fold change vs veh, NRIP1 / RFU, PTTG1IP / Fold change vs veh, PTTG1IP / RFU, CAPN2 / Fold change vs veh, CAPN2 / RFU, MED14 / Fold change vs veh, MED14 / RFU, SNORA58 / Fold change vs veh, SNORA58 / RFU, C1orf63 / Fold change vs veh, C1orf63 / RFU, LRRFIP1 / Fold change vs veh, LRRFIP1 / RFU, NDUFAF7 / Fold change vs veh, NDUFAF7 / RFU, SLC12A2 / Fold change vs veh, SLC12A2 / RFU, IBTK / Fold change vs veh, IBTK / RFU, ESF1 / Fold change vs veh, ESF1 / Fold change vs veh, TMEM50B / RFU, TAOK1 / Fold change vs veh, TAOK1 / RFU, ACBD3 / Fold change vs veh, ACBD3 / RFU, TMA16 / Fold change vs veh, TMA16 / RFU, RWDD3 / Fold change vs veh, RWDD3 / RFU, BCAT1 / Fold change vs veh, BCAT1 / RFU, EDEM3 / Fold change vs veh, EDEM3 / RFU, TMEM33 / Fold change vs veh, TMEM33 / RFU, WDR75 / Fold change vs veh, WDR75 / RFU, AHCTF1 / Fold change vs veh, AHCTF1 / RFU, TFRC / Fold change vs veh, TFRC / RFU, ZDHHC17 / Fold change vs veh, ZDHHC17 / RFU, NOM1 / Fold change vs veh, NOM1 / RFU, ARL8B / Fold change vs veh, ARL8B / RFU, ZBTB11 / Fold change vs veh, ZBTB11 / RFU, TAMM41 / Fold change vs veh, TAMM41 / RFU, KIAA1704 /// LOC100996395 / Fold change vs veh, KIAA1704 /// LOC100996395 / RFU, ING1 / Fold change vs veh, ING1 / RFU, TRMT61B / Fold change vs veh, TRMT61B / RFU, FUBP3 / Fold change vs veh, FUBP3 / RFU, TP53 / Fold change vs veh, TP53 / RFU, TNKS2 / Fold change vs veh, TNKS2 / RFU, ZFP14 / Fold change vs veh, ZFP14 / RFU, ACTR2 / Fold change vs veh, ACTR2 / RFU, PPP3R1 / Fold change vs veh, PPP3R1 / RFU, PIK3R1 / Fold change vs veh, PIK3R1 / RFU, HNRNPA1 / Fold change vs veh, HNRNPA1 / RFU, RNF170 / Fold change vs veh, RNF170 / RFU, ZNF28 / Fold change vs veh, ZNF28 / RFU, RNGTT / Fold change vs veh, RNGTT / RFU, OGT / Fold change vs veh, OGT / RFU, BRD1 / Fold change vs veh, BRD1 / RFU, MARS / Fold change vs veh, MARS / RFU, ZNF655 / Fold change vs veh, ZNF655 / RFU, FAHD1 / Fold change vs veh, FAHD1 / RFU, BDP1 / Fold change vs veh, BDP1 / RFU, LRRCC1 / Fold change vs veh, LRRCC1 / RFU, ARID1A / Fold change vs veh, ARID1A / RFU, ZNF146 / Fold change vs veh, ZNF146 / RFU, ZNF330 / Fold change vs veh, ZNF330 / RFU, GPN3 / Fold change vs veh, GPN3 / RFU, C9orf123 / Fold change vs veh, C9orf123 / RFU, N4BP2L2 / Fold change vs veh, N4BP2L2 / RFU, ARFIP1 / Fold change vs veh, ARFIP1 / RFU, FAM179B / Fold change vs veh, FAM179B / RFU, BCL10 / Fold change vs veh, BCL10 / RFU, UHRF1BP1L / Fold change vs veh, UHRF1BP1L / RFU, BET1 / Fold change vs veh, BET1 / RFU, CNOT2 / Fold change vs veh, CNOT2 / RFU, ZNF268 / Fold change vs veh, ZNF268 / Fold change vs veh, ZNF507 / RFU, DGCR2 / Fold change vs veh, DGCR2 / RFU, WDSUB1 / Fold change vs veh, WDSUB1 / Fold change vs veh, HSP90B1 /// MIR3652 / RFU, ADSS / Fold change vs veh, ADSS / RFU, GK / Fold change vs veh, GK / RFU, ZNF148 / Fold change vs veh, ZNF148 / RFU, TAF9 / Fold change vs veh, TAF9 / RFU, SLC1A5 / Fold change vs veh, SLC1A5 / RFU, SLMO2 / Fold change vs veh, SLMO2 / RFU, ABCC4 / Fold change vs veh, ABCC4 / RFU, LOC101060439 /// RAP1B / Fold change vs veh, LOC101060439 /// RAP1B / RFU, RFX7 / Fold change vs veh, RFX7 / RFU, GTPBP10 / Fold change vs veh, GTPBP10 / RFU, CNEP1R1 / Fold change vs veh, CNEP1R1 / RFU, BIVM-ERCC5 /// ERCC5 / Fold change vs veh, BIVM-ERCC5 /// ERCC5 / RFU, ILF3 / Fold change vs veh, ILF3 / RFU 11762660_at / Fold change /veh 11762660_at / RFU VCAN (11757783_s_at) / Fold change /veh VCAN (11757783_s_at) / RFU DDX43 (11728927_at) / Fold change /veh DDX43 (11728927_at) / RFU KRT8 (11758188_x_at) / Fold change /veh KRT8 (11758188_x_at) / RFU NKD1 (11759106_at) / Fold change /veh NKD1 (11759106_at) / RFU SRD5A1 (11742802_a_at) / Fold change /veh SRD5A1 (11742802_a_at) / RFU TPSAB1 /// TPSB2 (11721975_s_at) / Fold change /veh TPSAB1 /// TPSB2 (11721975_s_at) / RFU GSTM3 (11746129_a_at) / Fold change /veh GSTM3 (11746129_a_at) / RFU IL23R (11737362_x_at) / Fold change /veh IL23R (11737362_x_at) / RFU TMEM51 (11727254_a_at) / Fold change /veh TMEM51 (11727254_a_at) / RFU PIWIL2 (11732686_x_at) / Fold change /veh PIWIL2 (11732686_x_at) / RFU ORM1 (11744905_x_at) / Fold change /veh ORM1 (11744905_x_at) / RFU CCDC152 (11743942_at) / Fold change /veh CCDC152 (11743942_at) / RFU ECM1 (11717891_a_at) / Fold change /veh ECM1 (11717891_a_at) / RFU IL23R (11748794_a_at) / Fold change /veh IL23R (11748794_a_at) / RFU TNFAIP8L3 (11732012_x_at) / Fold change /veh TNFAIP8L3 (11732012_x_at) / RFU MBOAT4 (11741988_at) / Fold change /veh MBOAT4 (11741988_at) / RFU 11764193_at / Fold change /veh 11764193_at / RFU TMEM53 (11763286_at) / Fold change /veh TMEM53 (11763286_at) / RFU MAGEB2 (11727129_at) / Fold change /veh MAGEB2 (11727129_at) / RFU TMEM200A (11744735_a_at) / Fold change /veh TMEM200A (11744735_a_at) / RFU CCDC152 (11751479_a_at) / Fold change /veh CCDC152 (11751479_a_at) / RFU FAM211A (11726209_a_at) / Fold change /veh FAM211A (11726209_a_at) / RFU RGS16 (11746705_a_at) / Fold change /veh RGS16 (11746705_a_at) / RFU VCAN (11755009_s_at) / Fold change /veh VCAN (11755009_s_at) / RFU RHOB (11743442_s_at) / Fold change /veh RHOB (11743442_s_at) / RFU RGS16 (11720943_a_at) / Fold change /veh RGS16 (11720943_a_at) / RFU RGS16 (11720944_at) / Fold change /veh RGS16 (11720944_at) / RFU, VPS4B / Fold change vs veh, VPS4B / RFU, CREB1 / Fold change vs veh, CREB1 / RFU, DNAJC13 / Fold change vs veh, DNAJC13 / RFU, GNAQ / Fold change vs veh, GNAQ / RFU, CDK5R1 / Fold change vs veh, CDK5R1 / RFU, ZRANB3 / Fold change vs veh, ZRANB3 / RFU, CUL4A / Fold change vs veh, CUL4A / RFU, CCNY / Fold change vs veh, CCNY / RFU, UFL1 / Fold change vs veh, UFL1 / RFU, COG3 / Fold change vs veh, COG3 / RFU, DIAPH2 / Fold change vs veh, DIAPH2 / RFU, SKA2 / Fold change vs veh, SKA2 / RFU, AFF3 / Fold change vs veh, AFF3 / RFU, LMF1 / Fold change vs veh, LMF1 / RFU, IPO11 / Fold change vs veh, IPO11 / RFU, DFFB / Fold change vs veh, DFFB / RFU, FOXP1 / Fold change vs veh, FOXP1 / RFU, CARD8 / Fold change vs veh, CARD8 / RFU, STRN3 / Fold change vs veh, STRN3 / RFU, ADK / Fold change vs veh, ADK / RFU, RASSF2 / Fold change vs veh, RASSF2 / RFU, WIPF1 / Fold change vs veh, WIPF1 / RFU, LARP1B / Fold change vs veh, LARP1B / RFU, RASA1 / Fold change vs veh, RASA1 / RFU, RB1 / Fold change vs veh, RB1 / RFU, PPFIA1 / Fold change vs veh, PPFIA1 / RFU, MAT2A / Fold change vs veh, MAT2A / RFU, CCT5 / Fold change vs veh, CCT5 / RFU, WDR92 / Fold change vs veh, WDR92 / RFU, CUX1 / Fold change vs veh, CUX1 / RFU, TTC7A / Fold change vs veh, TTC7A / RFU, TMEM135 / Fold change vs veh, TMEM135 / RFU, DEPTOR / Fold change vs veh, DEPTOR / RFU, CPM / Fold change vs veh, CPM / RFU, DNAJB6 / Fold change vs veh, DNAJB6 / RFU, CACNA2D3 / Fold change vs veh, CACNA2D3 / RFU, DTX4 / Fold change vs veh, DTX4 / RFU, TFCP2 / Fold change vs veh, TFCP2 / RFU, GMCL1 /// GMCL1P1 / Fold change vs veh, GMCL1 /// GMCL1P1 / RFU, AEBP2 / Fold change vs veh, AEBP2 / RFU, SNHG1 /// SNORD22 /// SNORD25 /// SNORD26 /// SNORD27 /// SNORD28 /// SNORD29 /// SNORD31 / Fold change vs veh, SNHG1 /// SNORD22 /// SNORD25 /// SNORD26 /// SNORD27 /// SNORD28 /// SNORD29 /// SNORD31 / Fold change (Aza/veh), C12orf56 (ProbeSet 11735607_a_at) / Fold change (ACY-1035/veh), C12orf56 (ProbeSet 11735607_a_at) / Fold change (Aza/veh), FGFR1OP (ProbeSet 11751329_s_at) / Fold change (ACY-1035/veh), FGFR1OP (ProbeSet 11751329_s_at) / Fold change (Aza/veh), VPS36 (ProbeSet 11739960_a_at) / Fold change (ACY-1035/veh), VPS36 (ProbeSet 11739960_a_at) / RFU SYPL1 (11715823_x_at) / Fold change /veh SYPL1 (11715823_x_at) / RFU IGFBP7 (11715501_s_at) / Fold change /veh IGFBP7 (11715501_s_at) / RFU REEP3 (11722064_at) / Fold change /veh REEP3 (11722064_at) / RFU IGLL1 (11728026_x_at) / Fold change /veh IGLL1 (11728026_x_at): dose or concentration left out as unconfirmed
Details: MV-4-11 cells, 48 hours

Nc1ncn([C@@H]2O[C@H](CO)[C@@H](O)[C@H]2O)c(=O)n1 [azacitidine]
Fold change /veh TMPRSS4 (11748680_a_at): 0.94
